Source: US8173767B2, “Synthetic peptide vaccines for HIV: the CBD epitope as an effective immunogen to elicit broadly neutralizing antibodies against HIV” (Institut Pasteur, priority 2003, dated 2012)
Ends that are not written are not given here. * marks the point of attachment. Biotin = O=C1N[C@H]2[C@H](CS[C@H]2CCCCC(=O)*)N1

Tests used:
[1] = tested on: rabbits (Fauves de Bourgogne); test: ELISA of sera from rabbit immunized with the C-20 peptide (plates coated with C-20); format: in vivo; conditions: rabbit Hermione; after the first 2 injections; serum dilution 1/2000
Protocol: A biotinylated C-20 peptide was synthesized as in Example 2. After synthesis the biotinylated C-20 peptide was solubilized in water containing 10% DMSO at a concentration of 2 mg/ml. 100 μg of this solution (corresponding to 50 μl) was mixed with 50 μg of streptavidin in 250 μl distilled water. This solution was then mixed with 250 μl of adjuvant; complete Freund's adjuvant (CFA) for the first injection and incomplete Freund's adjuvant (IFA) for the following injections. Rabbits (Fauves de Bourgogne) were injected intramuscularly with 500 μl of the antigen/adjuvant mixture. 10 ml of blood was collected from the rabbits before the first injection of antigen. This serum is referred to as S0 or pre-immune serum.
All sera were tested by ELISA using 2 types of plates (PVC and Maxisorp) coated with the C-20 peptide.

[2] = tested on: HeLa cells; test: Entry of the CBD-1 peptide into cells (confocal immunofluorescence microscopy); format: cell-based
Protocol: (§1) Several studies in laser scanning confocal immunofluorescence microscopy were conducted to investigate the interaction of the CBD-1 peptide with cells and its effect on Midkine. […] Midkine binds its low affinity receptor, surface-expressed nucleolin, before entry into cells by an active process in which lipid rafts appear to be implicated (34).
On intact cells, the CBD-1 peptide appeared to interact with caveolin at the plasma membrane.
HeLa cells in culture medium were incubated (45 min at 37° C.) with the biotinylated CBD-1 peptide (5 μM). Cells were then washed and fixed with paraformaldehyde/Triton X-100 solution. […] The secondary antibody was Texas Red dye-conjugated donkey anti-rabbit IgG (Jackson ImmunoResearch Laboratories, PA). Confocal microscopy was performed as described previously (6).

[3] = tested on: Midkine; test: Effect of the CBD-1 peptide on Midkine binding and entry into cells (confocal microscopy); format: cell-based
Protocol: as §1

[4] = tested on: rabbits (Fauves de Bourgogne); test: ELISA of sera from rabbit immunized with the CBD-1 peptide (plates coated with CBD-1); format: in vivo
Protocol: The biotinylated CBD-1 peptide was solubilized in water containing 10% DMSO at a concentration of 2 mg/ml. 100 μg of this solution (50 μl) was mixed with 50 μg of streptavidin in 250 μl of distilled water. This solution was then mixed with 250 μl of complete Freund's adjuvant (CFA) for the first injection and incomplete Freund's adjuvant (IFA) for the following injections. 10 ml of blood was collected from the rabbits before the first injection of antigen; this serum was referred to as S0 or pre-immune serum.
The rabbits (Fauves de Bourgogne) were injected intramuscularly with 500 μl of the antigen/adjuvant mixture. The following Table 1 presents the injection and bleeding dates of the rabbit named “Aldernay”:
All sera were tested by ELISA using 2 types of plates (PVC and Maxisorp) coated with the CBD-1 peptide. The optical density (OD) was measured at 450 nm. An OD value above 0.20 was considered positive.

[5] = molecular target: T1, caveolin (Homo sapiens, UniProt Q03135); test: Binding of biotinylated CBD-1 to caveolin in crude MT4 cell extracts (avidine-sepharose, immunoblot)
T1 construct: endogenous in cells
T1 sequence (Q03135 1-178): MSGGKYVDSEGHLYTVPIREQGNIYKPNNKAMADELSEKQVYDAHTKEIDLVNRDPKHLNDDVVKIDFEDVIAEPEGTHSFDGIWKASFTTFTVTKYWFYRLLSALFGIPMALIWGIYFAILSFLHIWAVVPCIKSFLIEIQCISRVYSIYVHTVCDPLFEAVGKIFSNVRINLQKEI
Protocol: MT4 cells were extracted in buffer containing 10 mM Hepes, pH 7.6, 50 mM KCl, 400 mM NaCl, 1 mM EDTA, protease inhibitor cocktail and 1% Triton X-100®. Extracts were centrifuged at 12,000×g and the supernatants were stored at […]. 100 μl of cell extracts were first diluted with 400 μl of homogenization buffer and left at 4° C. for 10 minutes before centrifuging at 12,000×g.
The diluted supernatants were then incubated at 4° C. in the presence of 0, 2, 5, 10 and 20 μM of the biotinylated CBD-1 peptide. After 90 minutes, 100 μl of avidine-sepharose were added in each sample and the samples were further incubated at 4° C. for 2 hours with gentle shaking. The samples were then washed extensively with PBS and proteins bound to avidine-sepharose were eluted in 100 μl of electrophoresis sample buffer containing SDS and analyzed by SDS-PAGE (using a 12.5% polyacrylamide gel) for immunoblotting with rabbit anti-caveolin 1 antibodies ([…]) as previously described (6).
Cell extracts were first incubated with 50 μM of CBD-1 (+) or without CBD-1 (−) before the addition of 10 μM biotinylated CBD-1 and further processed as above. Lane E represents the analysis of crude cell extracts diluted 1-fold in the electrophoresis sample buffer. […]

DGIWKASFTTFTVTKYWFYR (DGIWKASFTTFTVTKYWFYR) [C-20 peptide]
antibodies against C-20 in serum (ELISA) [1]: significant amount of antibodies against C-20

L-E-Q-I-W-N-N-M-T-W-M-Q-W-D-K (LEQIWNNMTWMQWDK) [CBD-1 peptide]
entry of the peptide into cells ([2]; dependence on incubation temperature): occurred at 37 °C but not at 20 °C
Midkine binding to cells [3]: without affecting Midkine binding to cells
entry of Midkine into cells [3]: blocks entry of Midkine into cells
antibodies against CBD-1 in serum (ELISA) ([4]; after the first 3 injections, serum dilution 1/2,000): significant amount of antibodies against CBD-1
immunogenicity of the peptide (anti-CBD-1 antibodies in serum, ELISA) ([4]; rabbit Aldernay, intramuscular, biotinylated peptide with streptavidin in CFA/IFA, OD 450 nm above 0.20 positive): immunogenic

biotinylated CBD-1: CBD-1 peptide with a biotinyl moiety coupled at the N terminus (Biotin-LEQIWNNMTWMQWDK)
localization of the peptide in cells ([2]; HeLa cells, 5 μM, 45 min at 37° C.): localized in the cytoplasm
caveolin purified from crude extracts with the biotinylated peptide ([5]; 0, 2, 5, 10 and 20 μM biotinylated CBD-1, 4° C.): in a dose dependent manner
capacity to bind caveolin in the presence of excess CBD-1 ([5]; 50 μM CBD-1 before 10 μM biotinylated CBD-1): reduced capacity
